From ChEMBL document CHEMBL1201862, “PubChem BioAssay data set” (2004)
Structures can show the parent of a compound that is named as a salt.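 48-hour exposure; five concentrations; linearly interpolated endpoints. Here, GI50 denotes the concentration required for 50% inhibition of growth.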 Activity calls are given as the source filed them. No stated cut-off is given here; in the data, active = GI50 up to about 1.1 µM and inactive = higher.

Experiments:
Experiment in all cases: inhibition of tumour cell growth, NCI panel, 48 h
[1] = system: DLD-1
[2] = system: DMS-114
[3] = system: DMS-273
[4] = system: HOP-18
[5] = system: KM-20L2
[6] = system: RXF 631
[7] = system: SNB-78
[8] = system: XF498
[9] = system: M19-MEL

| Compound | GI50 [1] | GI50 [2] | GI50 [3] | GI50 [4] | GI50 [5] | GI50 [6] | GI50 [7] | GI50 [8] | GI50 [9] |
| --- | --- | --- | --- | --- | --- | --- | --- | --- | --- |
| CNC(C)Cc1ccccc1OC (stereo unspecified) [METHOXYPHENAMINE HYDROCHLORIDE] | > 100 µM (inactive) | > 100 µM (inactive) | > 100 µM (inactive) | > 100 µM (inactive) | > 100 µM (inactive) | > 100 µM (inactive) | > 100 µM (inactive) | > 100 µM (inactive) |  |
| C=C(C#N)C1OCC2OC(C)(C)OC21 (stereo unspecified) | 17.1 µM (inactive) | 22.7 µM (inactive) | 19.1 µM (inactive) | 24.7 µM (inactive) |  | 20.9 µM (inactive) | 19.7 µM (inactive) |  | 22 µM (inactive) |
| C/C(=N\NC(=S)N1CCC1)c1ccccn1 | 0.01 µM (active) | 0.01 µM (active) | 0.01 µM (active) | 0.929 µM (active) | 0.01 µM (active) | < 0.0262 µM (active) | 2.2 µM (inactive) | 0.457 µM (active) | 0.0815 µM (active) |
| O=C/C1=C/C2=Cc3ccccc3C=C(/C=C(/C=O)C1)C2 | 38.4 µM (inactive) | 38.3 µM (inactive) | 34.2 µM (inactive) |  | > 100 µM (inactive) |  | 52.7 µM (inactive) | 54.5 µM (inactive) | 53.8 µM (inactive) |
| CN(C)/C(=N/C(=O)Nc1ccccc1)SCc1ccccc1 | 65.3 µM (inactive) | 67.5 µM (inactive) | > 100 µM (inactive) | 64.9 µM (inactive) |  |  | > 100 µM (inactive) | 6.43 µM (inactive) | > 100 µM (inactive) |
| COC1=C(OC)CCC(/C(C#N)=C/c2ccc(OC)c(OC)c2)=C1 | > 100 µM (inactive) | 31.6 µM (inactive) | 49.8 µM (inactive) | > 100 µM (inactive) | > 100 µM (inactive) | > 100 µM (inactive) | 53.2 µM (inactive) |  | > 100 µM (inactive) |
| CCN(CC)c1c(C)nnn1C1OC(COC(C)=O)C(OC(C)=O)C(OC(C)=O)C1OC(C)=O (stereo unspecified) | > 100 µM (inactive) | > 100 µM (inactive) | > 10 µM (inactive) | > 100 µM (inactive) | > 100 µM (inactive) | > 100 µM (inactive) | > 100 µM (inactive) |  | > 100 µM (inactive) |
| CC(=O)OC1COC(n2ccc3cc(Br)c([N+](=O)[O-])cc32)C(OC(C)=O)C1OC(C)=O (stereo unspecified) | 44.3 µM (inactive) | 27.7 µM (inactive) | 29.9 µM (inactive) | > 10 µM (inactive) | 31 µM (inactive) | 23.7 µM (inactive) | 20.8 µM (inactive) | 14.3 µM (inactive) | 29.4 µM (inactive) |
| Cc1cc2c(=O)c(C)n[nH]c2c(C#N)c1C | > 100 µM (inactive) |  | > 100 µM (inactive) | > 100 µM (inactive) | > 100 µM (inactive) | > 100 µM (inactive) |  | > 100 µM (inactive) | > 100 µM (inactive) |
| CO[C@@H]1C=C[C@@]23c4cc5c(cc4CN(C[C@@H]2O)[C@H]3C1)OCO5 [(+)-HAEMANTHAMINE] | 15.3 µM (inactive) | 79.6 µM (inactive) |  | 21.8 µM (inactive) | 11.7 µM (inactive) |  | 52.5 µM (inactive) | 16.7 µM (inactive) | 16.6 µM (inactive) |
| O=C1OC(c2ccccc2)=N/C1=C/N1CCCC1C(=O)O (stereo unspecified) | > 100 µM (inactive) | > 100 µM (inactive) | > 100 µM (inactive) | > 100 µM (inactive) | > 100 µM (inactive) | > 100 µM (inactive) | > 100 µM (inactive) | > 100 µM (inactive) | > 100 µM (inactive) |
